Measurements as given in patent US6586416B2, “Methods of treatment using an epithelial sodium channel blocker and an inhibitor of the mineralocorticoid receptor” (priority 2001, dated 2003).

Legend:
Type in all cases: cell-based
[1] = system: amiloride-sensitive sodium conductance (ENaC); test: Whole-cell patch clamp of rabbit collecting duct principal cells; conditions: for mean current measured at EK+ (−80 mV): statistical analysis, aldosterone, then vasopressin, then amiloride
Method: (§1) Collecting ducts were manually dissected from sagittal slices obtained from 50 gram Sprague Dawley rats and 0.5 Kg New Zealand White rabbits. The dissected collecting ducts were suspended in RPMI 1640 culture medium supplemented with 1.5 mg/ml collagenase A (Boehringer Mannheim, Mannhein, Germany). The collecting ducts were enzymatically digested for 1.5 hours to isolate individual cells. The digested cells were washed in serum-free RPMI and placed in a perfusion chamber mounted on the stage of an inverted microscope. The whole-cell patch clamp configuration was established and initial current measurements were made in un-supplemented RPMI. […] To block the cytosolic mineralocorticoid receptor, some cells were suspended in RPMI supplemented with spironolactone for 1 hour prior to whole-cell patch clamping.
Studies were conducted using both whole cell patch clamp and single channel patch clamp techniques. Whole-cell clamped rabbit principal cells were exposed to 100 nM aldosterone. […] No cells failed both tests. […] ENa+ was approximately +60 mV with the ionic gradients present. The activated current was carried exclusively by sodium. In a separate set of experiments rabbit principal cells were re-suspended in RPMI supplemented with 1 μM spironolactone for 1 hour prior to use for whole-cell patch clamp. This concentration is sufficient to inhibit completely the mineralocorticoid receptor.

ENaC = biological target: T1, ENaC (Homo sapiens, UniProt P37088+P51168+P51170); test: Single channel patch clamp (outside-out patches) of human lymphocytes
T1 construct: Human and canine lymphocytes were isolated from peripheral blood samples by differential centrifugation over ficoll paque; endogenous in cells; host or cells: human peripheral blood lymphocytes
T1 sequence (P37088 1-669): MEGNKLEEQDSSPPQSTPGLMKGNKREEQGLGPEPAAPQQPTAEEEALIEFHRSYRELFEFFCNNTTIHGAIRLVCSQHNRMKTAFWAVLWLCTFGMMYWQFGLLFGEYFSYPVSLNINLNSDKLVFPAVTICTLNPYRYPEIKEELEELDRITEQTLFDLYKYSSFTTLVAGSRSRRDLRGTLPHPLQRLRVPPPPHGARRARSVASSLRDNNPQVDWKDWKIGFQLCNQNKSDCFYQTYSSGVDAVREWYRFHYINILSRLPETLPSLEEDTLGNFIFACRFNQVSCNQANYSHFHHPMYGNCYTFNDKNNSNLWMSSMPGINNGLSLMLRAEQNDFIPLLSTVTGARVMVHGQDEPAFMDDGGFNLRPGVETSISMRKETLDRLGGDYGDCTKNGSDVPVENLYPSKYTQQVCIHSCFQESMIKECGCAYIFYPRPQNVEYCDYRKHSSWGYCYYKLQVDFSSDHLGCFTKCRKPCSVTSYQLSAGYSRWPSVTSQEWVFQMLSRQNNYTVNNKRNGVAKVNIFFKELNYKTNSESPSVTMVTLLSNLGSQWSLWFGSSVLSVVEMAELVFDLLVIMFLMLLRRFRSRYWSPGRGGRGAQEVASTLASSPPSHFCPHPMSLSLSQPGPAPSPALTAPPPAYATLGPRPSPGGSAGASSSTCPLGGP
T1 sequence (P51168 1-640): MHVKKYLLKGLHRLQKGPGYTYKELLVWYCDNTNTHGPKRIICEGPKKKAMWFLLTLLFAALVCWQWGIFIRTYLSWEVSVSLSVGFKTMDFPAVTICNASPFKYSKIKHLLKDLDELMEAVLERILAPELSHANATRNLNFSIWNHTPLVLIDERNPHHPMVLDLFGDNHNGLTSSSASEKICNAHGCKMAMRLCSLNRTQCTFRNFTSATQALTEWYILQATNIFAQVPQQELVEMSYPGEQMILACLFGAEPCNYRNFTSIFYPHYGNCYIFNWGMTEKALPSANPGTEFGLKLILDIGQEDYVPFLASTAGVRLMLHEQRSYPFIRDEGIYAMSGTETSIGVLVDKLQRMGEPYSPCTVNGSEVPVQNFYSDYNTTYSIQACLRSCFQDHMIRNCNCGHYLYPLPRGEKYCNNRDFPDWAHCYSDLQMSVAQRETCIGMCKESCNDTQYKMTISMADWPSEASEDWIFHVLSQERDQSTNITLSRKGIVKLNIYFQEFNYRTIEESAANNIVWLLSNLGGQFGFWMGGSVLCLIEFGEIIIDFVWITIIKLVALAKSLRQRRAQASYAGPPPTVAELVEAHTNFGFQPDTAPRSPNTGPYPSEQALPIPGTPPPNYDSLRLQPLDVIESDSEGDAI
T1 sequence (P51170 1-649): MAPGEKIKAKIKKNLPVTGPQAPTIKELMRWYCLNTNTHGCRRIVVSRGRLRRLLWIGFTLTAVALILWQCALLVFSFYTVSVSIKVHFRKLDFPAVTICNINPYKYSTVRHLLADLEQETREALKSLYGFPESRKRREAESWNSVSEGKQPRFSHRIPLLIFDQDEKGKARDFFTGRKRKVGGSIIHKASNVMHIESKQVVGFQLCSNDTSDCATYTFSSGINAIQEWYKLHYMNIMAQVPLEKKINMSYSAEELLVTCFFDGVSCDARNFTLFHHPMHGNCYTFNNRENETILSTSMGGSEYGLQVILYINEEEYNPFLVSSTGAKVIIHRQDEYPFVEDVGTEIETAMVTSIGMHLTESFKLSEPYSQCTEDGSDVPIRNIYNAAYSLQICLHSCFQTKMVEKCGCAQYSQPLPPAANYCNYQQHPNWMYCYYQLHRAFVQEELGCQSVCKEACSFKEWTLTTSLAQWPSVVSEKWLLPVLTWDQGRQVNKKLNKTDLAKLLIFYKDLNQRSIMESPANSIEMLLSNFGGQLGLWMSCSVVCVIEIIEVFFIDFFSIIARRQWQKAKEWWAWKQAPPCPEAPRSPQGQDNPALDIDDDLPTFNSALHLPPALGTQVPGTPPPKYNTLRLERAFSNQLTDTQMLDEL
Method: Human and canine lymphocytes were isolated from peripheral blood samples by differential centrifugation over ficoll paque (Pharmacia Biotech, Uppsala, Sweden). The cells were washed and re-suspended in serum-free RPMI. Subsequently, suspended cells were placed in the perfusion chamber. Whole-cell patch clamp and testing of aldosterone were carried out using identical techniques and protocols as described for principal cells. Rabbit, rat and mouse lymphocytes were obtained by mincing sections of spleen and manually freeing the cells by agitation. The cell suspensions were then centrifuged over ficoll paque and treated identically to the lymphocytes obtained from peripheral blood. All procedures were carried out under the guidelines for animal use and with institutional board approval for human use.
The “ragged” morphology of the whole-cell currents in principal cells and lymphocytes has generated some concern about the identity of the channels that are activated by aldosterone. To address this concern, single channel characteristics of the sodium conductors expressed by human lymphocytes were studied.
To test the amiloride sensitivity of the single channels, outside-out patches were formed because amiloride only interacts with the outside surface of the channels. A “rundown” phenomena typical of ENaC in the inside-out patch experiments was noted.

[2] = biological target: T2, amiloride-sensitive sodium conductance (ENaC) (Rattus norvegicus, UniProt P37089+P37090+P37091); test: Whole-cell patch clamp of rat collecting duct principal cells; conditions: for mean current measured at EK+ (−80 mV): statistical analysis, then vasopressin, then amiloride
T2 construct: Collecting ducts were manually dissected from sagittal slices obtained from 50 gram Sprague Dawley rats and 0.5 Kg New Zealand White rabbits; from tissue; host or cells: principal cells isolated from kidney collecting ducts of Sprague Dawley rats
T2 sequence (P37089 1-698): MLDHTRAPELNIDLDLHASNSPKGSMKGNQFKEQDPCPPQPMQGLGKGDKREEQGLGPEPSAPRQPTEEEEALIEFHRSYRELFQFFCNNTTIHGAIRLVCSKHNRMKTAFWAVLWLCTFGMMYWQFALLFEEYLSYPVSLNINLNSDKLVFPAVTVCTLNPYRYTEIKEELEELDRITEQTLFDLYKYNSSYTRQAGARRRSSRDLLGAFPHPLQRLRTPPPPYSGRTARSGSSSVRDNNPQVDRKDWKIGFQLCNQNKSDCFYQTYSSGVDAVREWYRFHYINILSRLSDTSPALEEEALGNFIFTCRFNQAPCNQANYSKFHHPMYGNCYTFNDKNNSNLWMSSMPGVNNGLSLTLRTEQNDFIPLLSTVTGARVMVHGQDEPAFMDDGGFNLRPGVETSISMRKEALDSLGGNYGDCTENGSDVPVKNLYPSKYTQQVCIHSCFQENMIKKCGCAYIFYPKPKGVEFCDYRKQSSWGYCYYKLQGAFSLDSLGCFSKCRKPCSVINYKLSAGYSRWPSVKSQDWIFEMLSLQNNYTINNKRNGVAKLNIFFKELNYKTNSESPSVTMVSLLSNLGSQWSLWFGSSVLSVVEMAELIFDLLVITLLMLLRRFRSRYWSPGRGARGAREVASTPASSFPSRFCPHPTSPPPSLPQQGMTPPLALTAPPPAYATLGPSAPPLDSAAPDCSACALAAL
T2 sequence (P37090 1-638): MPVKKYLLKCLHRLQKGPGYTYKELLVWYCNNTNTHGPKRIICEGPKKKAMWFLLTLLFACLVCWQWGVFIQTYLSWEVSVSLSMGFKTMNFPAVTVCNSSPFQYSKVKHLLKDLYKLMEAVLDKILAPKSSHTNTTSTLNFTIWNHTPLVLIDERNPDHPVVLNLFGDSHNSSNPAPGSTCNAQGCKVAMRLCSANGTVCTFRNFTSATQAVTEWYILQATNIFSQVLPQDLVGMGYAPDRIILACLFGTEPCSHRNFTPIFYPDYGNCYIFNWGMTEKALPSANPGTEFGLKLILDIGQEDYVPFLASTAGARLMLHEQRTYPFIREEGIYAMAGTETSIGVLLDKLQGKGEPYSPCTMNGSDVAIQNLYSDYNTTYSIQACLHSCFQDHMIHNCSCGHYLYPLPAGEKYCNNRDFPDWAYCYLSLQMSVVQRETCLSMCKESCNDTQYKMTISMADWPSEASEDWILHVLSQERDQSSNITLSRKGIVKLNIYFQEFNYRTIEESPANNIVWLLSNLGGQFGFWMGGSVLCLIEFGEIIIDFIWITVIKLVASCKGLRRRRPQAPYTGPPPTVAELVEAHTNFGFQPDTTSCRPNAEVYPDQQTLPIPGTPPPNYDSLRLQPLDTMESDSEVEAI
T2 sequence (P37091 1-650): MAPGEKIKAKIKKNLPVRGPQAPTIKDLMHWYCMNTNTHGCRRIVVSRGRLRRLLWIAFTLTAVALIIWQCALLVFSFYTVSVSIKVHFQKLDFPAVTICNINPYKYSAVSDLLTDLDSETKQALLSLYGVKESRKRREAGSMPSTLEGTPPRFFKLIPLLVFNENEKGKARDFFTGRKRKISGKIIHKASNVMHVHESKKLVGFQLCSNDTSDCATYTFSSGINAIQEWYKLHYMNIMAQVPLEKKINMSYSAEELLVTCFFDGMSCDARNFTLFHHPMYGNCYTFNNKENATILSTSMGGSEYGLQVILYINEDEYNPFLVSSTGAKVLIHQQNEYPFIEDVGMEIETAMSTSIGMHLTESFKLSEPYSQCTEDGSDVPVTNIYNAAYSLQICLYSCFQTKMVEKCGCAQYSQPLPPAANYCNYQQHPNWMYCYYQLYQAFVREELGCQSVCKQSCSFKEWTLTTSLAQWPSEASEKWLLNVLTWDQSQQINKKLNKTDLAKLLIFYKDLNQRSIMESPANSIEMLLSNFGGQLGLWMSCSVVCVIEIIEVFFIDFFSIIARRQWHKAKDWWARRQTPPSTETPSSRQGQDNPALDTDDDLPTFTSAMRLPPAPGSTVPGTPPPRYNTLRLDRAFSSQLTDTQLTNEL
Method: as §1
The same protocol was carried out on rabbit principal cells.

C[C@]12CCC(=O)C=C1CC[C@@H]1[C@@H]2[C@@H](O)C[C@]2(C=O)[C@@H](C(=O)CO)CC[C@@H]12 [aldosterone]
effect on inward currents with mineralocorticoid receptor inhibition ([1]; rabbit principal cells pre-treated with 1 μM spironolactone, 100 nM aldosterone): specifically activated the inward currents
effect on inward currents at hyperpolarized membrane potential clamp voltages ([1]; rabbit principal cells, 100 nM aldosterone in bath): specific activation of the inward currents
mean current measured at EK+ (−80 mV) ([1]; rabbit principal cells): significantly increased the current
time to aldosterone-stimulated ENaC activation ([1]; rabbit principal cells, whole-cell clamp, ATP-supplemented pipette solution): within seconds
unitary conductance (ENaC; cells treated with 100 nM aldosterone): unchanged
acute effect on principal cells ([2]; aldosterone): no acute affect
mean current measured at EK+ (−80 mV) ([2]; aldosterone): did not alter the current

N=C(N)NC(=O)c1nc(Cl)c(N)nc1N [amiloride]
inhibition of aldosterone-activated currents ([1]; rabbit principal cells, 2 μM amiloride in the continued presence of aldosterone): inhibited completely
mean current measured at EK+ (−80 mV) ([1]; rabbit principal cells): returned the conductance to the basal level
single channel activity (ENaC; amiloride 2 μM): completely abolished
inhibition of single channels (ENaC; amiloride concentration close to IC50 ([…] nM)): Incomplete inhibitory action
single channel activity (ENaC; cells treated with 100 nM aldosterone, amiloride 2 μM final concentration in bath): virtually abolished
mean current measured at EK+ (−80 mV) ([2]; aldosterone): restored the current to the basal level

CC(=O)S[C@@H]1CC2=CC(=O)CC[C@]2(C)[C@H]2CC[C@@]3(C)[C@@H](CC[C@@]34CCC(=O)O4)[C@H]12 [spironolactone]
effect on inward currents ([1]; rabbit principal cells, 1 μM spironolactone for 1 hour prior to whole-cell patch clamp): no effect on the inward currents

NC(=O)CC[C@@H]1NC(=O)[C@H](Cc2ccccc2)NC(=O)[C@H](Cc2ccc(O)cc2)NC(=O)[C@@H](N)CSSC[C@@H](C(=O)N2CCC[C@H]2C(=O)N[C@@H](CCCN=C(N)N)C(=O)NCC(N)=O)NC(=O)[C@H](CC(N)=O)NC1=O [vasopressin]
mean current measured at EK+ (−80 mV) ([1]; rabbit principal cells): had no additional effect
further activation of inward currents after ENaC activation by aldosterone ([1]; rabbit principal cells, vasopressin after aldosterone): did not activate the inward currents any further
activation of amiloride sensitive inward currents ([2]; 250 nM vasopressin after aldosterone): acute specific activation of the amiloride sensitive inward currents
mean current measured at EK+ (−80 mV) ([2]; aldosterone): increased it significantly
